In US20200276181A1, “THIENOISOQUINOLINES AND THEIR DERIVATIVES FOR TARGETING TUBULIN, CH-TOG, AURORA A KINASE, TPX2, CDK5RAP2 AND/OR ASPM” (VALORBEC, SEC, priority 2017, published 2020):

Columns and labels:
[1] = test system: HeLa cells (GFP:tubulin, SiR-tubulin or GFP-tagged ch-TOG); assay: Live imaging of spindles; format: cell-based, human
Source text: Bars show standard deviation. […] The bars indicate standard deviation. […] Bars show standard deviation. […] Bars show standard deviation. […] The scale bar for all cells is 10 μm.

HeLa cells in metaphase = assay: Short treatment and washout, spindle recovery; format: cell-based, human; conditions: 5 minutes treatment, washout, imaged after 40 minutes
Source text: (§1) For each condition, 20,000 cells were counted per replicate (N=3). Line graphs (right) were made to better illustrate the relative changes in the cell cycle phases for the different treatments. Bars show standard deviation. The asterisks indicate the first statistically significant change in the G0/G1 and G2/M populations determined by a two-way ANOVA with a post-hoc Tukey's multiple comparisons test using 95% confidence intervals. FIG. 2B) is a line graph showing the percentage of HCT116 (p53−/−) cells, A549 cells, HeLa cells and H1299 cells in mitosis after treatment with various concentrations of C75 for one population doubling time. All of the cell lines show an increase in the proportion of mitotic cells after treatment with 200 nM C75. The bars indicate standard deviation. […]
(§2) C75 was also tested for efficacy in different cancer cell lines. […] To further assess the role of C75 in disrupting spindles, HeLa cells were treated with 300 nM C75 for 4 hours and the spindle phenotypes were analyzed in more detail (FIG. 2E). […] To assess the affect of C75 on centrosomes, HeLa cells were treated with C75 or nocodazole (a drug that causes microtubule depolymerization as a control) for a short period of time (5 minutes), then the drugs were removed and the cells were analyzed for spindle phenotypes (schematic in FIG. 2G). […]

HeLa cells [2] = assay: Percentage of mitotic cells, nocodazole +/- C75; format: cell-based, human; conditions: 200 nM C75 + 33 or 66 nM nocodazole
HFF-1 cells = assay: Viability IC50, high-throughput automated analysis (Table 4); format: cell-based; conditions: Homo sapiens, 3 population doubling times
Method: (§3) FIG. 1A) is a line graph showing changes in the percentage of viable HFF-1, HeLa, A549 and HCT 116 cells after treatment with a range of C75 concentrations for 3 population doubling times (N=3). […] There were more rounded mitotic cells after C75 treatment in comparison to the control. FIG. 1C) is a line graph showing the percentage of HeLa and HFF1 cells in mitosis after treatment with various concentrations of C75 for 8 hours. The bars indicate standard deviation. FIG. 1D) is a series of images showing cells that were fixed and co-stained for tubulin (microtubules) and DAPI (DNA). Treatment of HeLa cells with 300 nM C75 caused the mitotic spindles to be disorganized, while they were not affected in HFF1 cells. […] The scale bar for the cells is 10 μm. […] FIG. 1F) is a cartoon schematic showing the key features of a metaphase cell.
(§4) The images in FIG. 1B) show fields of view of HeLa cells treated with (dimethyl sulfoxide) DMSO or 500 nM of C75. […] Higher concentrations of C75 caused spindle phenotypes in HFF1 cells, but they were quite different in comparison to HeLa cells (FIG. 1D).

HeLa cells [3] = assay: as above; format: cell-based; conditions: Homo sapiens, 3 population doubling times
Method: as §3, §4

A549 cells = assay: as above; format: cell-based; conditions: Homo sapiens, 3 population doubling times
Method: as §3, §4

HCT 116 cells = assay: as above; format: cell-based; conditions: Homo sapiens, 3 population doubling times
Method: as §3, §4

[4] = test system: H1299 (non-small cell lung cancer) cells; assay: Mitotic arrest after one population doubling time; format: cell-based, human; conditions: H1299, least responsive
Source text: as §1, §2

HCT116 cells = assay: Viability IC50 of C75 in combination with subthreshold colchicine; format: cell-based; conditions: + 3 nM colchicine
Source text: Bars show standard deviation. […] The scale bar for all cells is 10 μm. In FIG. 4F), bar graphs show changes in the proportion of HCT 116 cells with the different spindle phenotypes as in FIG. 4D (n=2368; N=3). […] Bars indicate standard deviation.

[5] = test system: HCT116, HeLa and A549 cells; assay: Cell cycle phases by flow cytometry; format: cell-based; conditions: 300 nM or 400 nM for 8 hours
Source text: as §1, §2

[6] = test system: HeLa cells in comparison to HFF1 cells; assay: Percentage of cells in mitosis, 8 hours; format: cell-based; conditions: nanomolar range
Method: as §3, §4

## COc1ccc(S(=O)(=O)N2Cc3ccccc3-c3sc(Br)cc32)cc1 [Compound C75]
[1]; 100-300 nM
  time until spindle poles collapse together in metaphase cells: 1 to 2 min
[1]; HeLa live imaging
  time after exposure until centrosomes fragmented or declustered and microtubules collapsed: 4 to 6 min
  time after washout until microtubule polymers grew back: 20 to 30 min
[1]; HeLa live imaging, drugs not washed out
  microtubule polymers without washout: microtubule polymers grow back to form multipolar spindles
HeLa cells in metaphase
  spindles reformed after drug removal: tri- or multipolar spindles formed
HeLa cells [2]
  change in proportion of mitotic cells: large change
HFF-1 cells
  IC50: 789 nM
HeLa cells [3]
  IC50: 427 nM
A549 cells
  IC50: 377 nM
HCT 116 cells
  IC50: 431 nM
[4]
  concentration at which mitotic cells show a small increase: 200 nM
HCT116 cells
  lowering of the IC50 of C75 by subthreshold colchicine: ~2 fold
[5]
  change in proportion of G2/M cells: increase in the proportion of G2/M cells
[6]
  mitotic arrest in HeLa vs HFF1: selectively causes mitotic arrest
